According to patent US20240401058A1, “METHOD OF REGULATING PULMONARY ARTERY VASCULAR REMODELING” (THE TRUSTEES OF INDIANA UNIVERSITY, priority 2021, published 2024):

Legend:
Format in all cases: cell-based, human
hPASMC = assay: Cell proliferation rate in hPASMC following EMAP II treatment; conditions: inhibitor pretreatment, EMAP II 24 hours
Experimental: Cells were treated with EMAP II or vehicle, cells were rinsed at the desired time point, and lysis buffer was applied.

[1] = test system: pSPHK2 in nuclear fractions of hPASMC; assay: Nuclear pSPHK2 in hPASMC after EMAP II treatment (immunoblot of nuclear fractions, immunofluorescence); conditions: inhibitor pretreatment, EMAP II 150 minutes
Experimental: Primary human pulmonary artery smooth muscle cells (hPASMC) purchased from Lonza (Walkersville, MD) were cultured in complete growth medium containing smooth muscle growth media-2 (SmGM-2) with 10% FBS and growth factors provided as a kit by the supplier (Lonza, (Walkersville, MD). Cells were cultured in a humidified atmosphere with 5% CO2 at 37° C. For all studies, passages 5-10 were used for hPASMCs. For treatment studies, subconfluent cells plated in multi-well plates were serum starved and if required, pretreated with inhibitors before stimulation with 2 μg/mL recombinant EMAP II. All the controls were handled similar to the test samples. Cells were treated with EMAP II or vehicle, cells were rinsed at the desired time point, and lysis buffer was applied.
After appropriate treatments, protein lysates were prepared by using RIPA buffer (for cells) or home-made lysis buffer (tissue) supplemented with phosphatase and protease inhibitors (Thermo Fisher Scientific). Alpha-tubulin or Vinculin was used as a loading control. For nuclear and cytoplasmic fractionation, NE-PER kit from Thermo Fischer Scientific was used. Western blots were performed according to standard methods and quantified using densitometry using Image Studio Lite software from LI-COR Biosciences. […]

HDAC = HDAC assay in nuclear fractions of hPASMC; conditions: inhibitor pretreatment, EMAP II 150 minutes
Experimental: Equal number of hPASMC cells (15000/[…]) were plated and serum starved for overnight. Cells were pretreated with inhibitors and stimulated for the desired time points and collected. Cells were pelleted out and washed with PBS. After the extraction of nuclear proteins, protein concentration was measured. HDAC levels were measured using HDAC activity flurometric kit (Abcam, ab156064) following manufacturer's instructions. Free unbound HDAC levels were normalized against protein levels.

iPAH: PASMCs = assay: Cell proliferation rate of iPAH: PASMCs; conditions: iSPHK2 pretreatment 24 hours
Experimental: All studies involving human lung tissues and cells were conducted according to the Institutional review board of Indiana University School of Medicine. Deidentified archived tissues and pulmonary arterial smooth muscle cells (PASMCs) obtained from the Pulmonary Hypertension Breakthrough Initiative (PHBI) biorepository from patients with Idiopathic Pulmonary Arterial Hypertension (iPAH: Group 1 PH) at time of lung transplantation and patients without PH that were failed donor lungs (FDL).
Primary human PASMCs (hPASMCs), pulmonary microvascular endothelial cells (hPMVECs) purchased from Lonza (Walkersville, MD) and iPAH: PASMCs were cultured in complete growth medium or conditioned media in a humidified atmosphere or 1% O2 with 5% CO2 at 37° C. For all studies, passages 5-10 were used for hPASMCs and hPMVECs.

Ac-H3K9 = assay: CUT&RUN with acetylated H3K9 antibody in hPASMC; conditions: for EMAP II promoted hyperacetylation of H3K9 (Ac-H3K9 peaks): EMAP II 2-3 hours
Experimental: Cleavage Under Targets and Release Using Nuclease (CUT&RUN) was performed with hPASMC using CUTANA® protocol v1.6. For each condition, nuclei from two biological replicates were extracted by incubating cells on ice for 10 min in Nuclei Extraction buffer (NE: 20 mM HEPES-KOH, pH 7.9; 10 mM KCl; 0.1% Triton X-100; 20% Glycerol; 0.5 mM spermidine; 1× complete protease inhibitor (GoldBio), collecting by centrifugation (600 g, 3 min, 4° C.), discarding the supernatant, and resuspending at [100 μl/500K nuclei] sample in NE buffer. For each target 500K nuclei were immobilized onto Concanavalin-A beads (EpiCypher #21-1401) and incubated overnight (4° C. with gentle rocking) with 0.5 μg of antibody IgG (negative control), trimethylated H3K4 (positive control), Ac-H3K9 (all validated to SNAP-ChIP nucleosome standards). CUT&RUN enriched DNA was purified and used to prepare sequencing libraries with the Ultra II DNA Library Prep kit (New England Biolabs #E7645S). Libraries were sequenced on the Illumina NextSeq 550, obtaining ˜8 million paired end reads on average. The CUT&RUN paired reads were used for quality control using FASTQ Groomer (Galaxy Version 1.1.5) and paired ends were aligned against the GRCh38/hg38 reference genome assembly for human using bowtie2 (Galaxy Version 2.4.2+galaxy0). After quality-based filtering with SAM or BAM tools (Galaxy Version 1.8+galaxy1), MACS2 (Galaxy Version 2.1.1.20160309.6) was applied for CUT&RUN peak calling of Ac-H3K9 against the IgG control with genome size of 2.7e9 and then, DiffBind (Galaxy Version 2.10.0) was used to analyze the differential binding sites between the control and rEMAP II treated samples.

nuclear S1P = assay: ELISA for S1P quantification in nuclear fractions of hPASMC; conditions: inhibitor pretreatment, EMAP II 15 or 150 minutes
Experimental: Equal number of hPASMC cells (15000/[…]) were plated and serum starved for overnight. Cells were pretreated with inhibitors if needed and stimulated for in a series of time points and collected the cells. Cells were pelleted out and washed with PBS. After the extraction of nuclear proteins, protein concentration was measured. S1P levels were measured using S1P ELISA kit (MyBioSource, MBS069092) following manufacturer's instructions. S1P levels were normalized against protein levels.

Row | Structure (SMILES) | EMAP II mediated cell proliferation (hPASMC) | EMAP II mediated cell proliferation (hPASMC; listed as iSPHK2) | EMAP II induced nuclear activation of SPHK2 (nuclear pSPHK2/lamin B) [1] | EMAP II induced nuclear activation of SPHK2 (nuclear pSPHK2/lamin B) ([1]; listed as iSPHK2) | HDAC activity (HDAC) | HDAC activity (HDAC; listed as iSPHK2) | HDAC activity (HDAC; listed as iSPHK2 inhibitor) | proliferation rate (iPAH: PASMCs) | differentially acetylated sites by EMAPII that are altered by iSPHK2 pretreatment (Ac-H3K9) [sites] | differentially acetylated upstream sites by EMAPII that are also altered by iSPHK2 pretreatment (Ac-H3K9) [sites] | EMAP II promoted hyperacetylation of H3K9 (Ac-H3K9 peaks) (Ac-H3K9; inhibitor pretreatment) | EMAP II promoted hyperacetylation of H3K9 (Ac-H3K9 peaks) (Ac-H3K9; inhibitor pretreatment, listed as iSPHK2) | level of Ac-H3K9 regions in KLF4 (Ac-H3K9; inhibitor pretreatment, EMAPII treated) | EMAP II generated nuclear S1P (nuclear S1P) | EMAP II generated nuclear S1P (nuclear S1P; listed as iSPHK2)
1 | Cc1cc(CS(=O)(=O)c2ccccc2)cc(OCc2ccc(CN3CCCC3CO)cc2)c1 (stereo not shown) [SPHK1 inhibitor, PF643] | blocked EMAPII mediated proliferation | – | – | – | – | – | – | – | – | – | – | – | – | – | –
2 | O=C(NCc1ccncc1)C12CC3CC(C1)CC(c1ccc(Cl)cc1)(C3)C2 [SPHK2 inhibitor, ABC294640] | blocked EMAPII mediated proliferation | rescued | ablated the EMAP II induced nuclear activation of SPHK2 | ablated the EMAPII induced nuclear activation of SPHK2 | rescued decreased HDAC activity | rescued the loss of HDAC activity | rescued the loss of HDAC activity | restoring regular proliferation rates in iPAH: PASMCs | 5554 | 755 | partially diminished EMAP II promoted hyperacetylation of H3K9 | partially diminished EMAPII promoted hyperacetylation of H3K9 | rescued the level of Ac-H3K9 regions in EMAPII treated cells | suppressed EMAP II generated nuclear S1P expression | suppressed EMAPII generated nuclear S1P expression
